US20070060550A1, “Methods of determining compounds useful in the treatment of bipolar disorder and methods of treating such disorders” (priority 2005, published 2007)

What was measured:
prolyl oligopeptidase = molecular target: T1, prolyl oligopeptidase (Homo sapiens, UniProt P48147); assay: prolyl oligopeptidase fluorogenic enzyme assay (Z-Gly-Pro-aminomethyl coumarin); type: biochemical; conditions: for effect on prolyl oligopeptidase proteolytic activity: FIG. 9
T1 construct: poly-histidine; made in house; host or cells: E. coli
T1 sequence (P48147 1-710): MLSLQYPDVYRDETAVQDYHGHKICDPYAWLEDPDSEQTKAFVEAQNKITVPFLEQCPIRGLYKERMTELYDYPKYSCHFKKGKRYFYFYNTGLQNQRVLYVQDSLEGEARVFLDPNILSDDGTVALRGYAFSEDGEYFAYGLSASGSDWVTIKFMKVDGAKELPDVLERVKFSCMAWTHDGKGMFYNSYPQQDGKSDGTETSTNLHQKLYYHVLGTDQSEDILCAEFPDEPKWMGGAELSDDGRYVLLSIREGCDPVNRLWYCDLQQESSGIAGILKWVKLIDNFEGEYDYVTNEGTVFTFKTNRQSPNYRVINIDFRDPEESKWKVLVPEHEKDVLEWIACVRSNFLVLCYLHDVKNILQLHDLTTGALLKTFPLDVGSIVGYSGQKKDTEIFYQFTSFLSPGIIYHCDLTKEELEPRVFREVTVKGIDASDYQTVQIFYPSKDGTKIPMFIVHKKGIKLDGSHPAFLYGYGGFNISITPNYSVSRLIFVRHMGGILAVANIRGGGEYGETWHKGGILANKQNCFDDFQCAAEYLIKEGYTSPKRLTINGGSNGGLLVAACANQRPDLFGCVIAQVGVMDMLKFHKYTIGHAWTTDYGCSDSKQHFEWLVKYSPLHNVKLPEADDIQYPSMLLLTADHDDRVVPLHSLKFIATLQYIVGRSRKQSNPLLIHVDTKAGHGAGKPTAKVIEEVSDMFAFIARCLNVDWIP
Excerpt: For inhibitors of the enzymatic activity on the enzyme prolyl oligopeptidase, the relevant references for several assays can be found in Cheng et al., MCN 2005. Common assays use a peptide-based substrate which, when cleaved from a prorlyl bond, releases a fluorogenic signal that can be quantitated by spectrocopy.
Conveniently, the effect of the candidate compounds that inhibit enzyme activity can be assessed using a labeled substrate that is cleaved or otherwise modified by prolyl oligopeptidase to produce a detachable change such as release of a label. Thus, it is possible to screen candidate inhibitors by measuring the change in the signal from the label caused by the action of prolyl oligopeptidase in the presence and absence of a candidate inhibitor compound. A preferred substrate may be one in which a fluorescent label is employed, such as Z-Gly-Pro-aminomethyl coumarin.
Conveniently, prolyl oligopeptidase enzyme assays can be carried out using a standard fluorogenic assay with the synthetic substrate Z-Gly-Pro-aminomethyl coumarin obtained from Bachem, Switzerland. Recominant prolyl oligopeptidase was produced in E. coli transfected with cDNA encoding the human form of prolyl oligopeptidase cloned into a bacterial expression vector containing either an N-or a C-terminal poly-histidine tag in order to purify the expressed protein. cDNA encoding human […] can be obtained from the MRC's HGMP Resource Center, Hinxton Hall Cambridge, UK (Clone Image No. 3614248).

[1] = system: sensory neuron growth cones; conditions: Williams et al., 2002; cited from earlier work
cortical neurons = assay: 3H-CDP-DAG accumulation assay of PIns recycling in carbachol-stimulated neurons; type: cell-based
Excerpt: PIns recycling that is limited by the supply of inositol can be assessed by loading cells with ^3H-cytidine, stimulating the cells with carbachol in the presence or absence of lithium, precipitating protein with trichloracetic acid, and then determining how much ^3H accumulates as ^3H-CDP-DAG in the lipid membrane compartment, which can be extracted with chloroform. […] Compounds specifically for this purpose may be designed by a number of computer programs suitable for this purpose.
A suitable screen therefore will determine compounds that can reverse the effect of lithium as measured by the accumulation of CDP-DAG in carbachol-stimulated neurons. Another means of screening for drugs that reverse the effect of lithium on PIns recycling is to screen for drugs that alter the supply of intracellular inositol in neurons by labelling them with titriated inositol and analysing the patterns of cytosolic inositol phosphates and membrane phoshoinositides: the novelty of this approach is to use cortical neurons rather than non-neural cells or neural cell lines. […] Additional known tricyclics such as protriptyline that could also be tested. […] The same assays can be used to test for other compounds that stimulate PIns cycling including other inhibitors of prolyl oligopeptidase activity.
The accumulation of tritiated CDP-DAG in the membrane fraction after loading cells with ^3H-cytidine or the incorporation of ^32P orthophosphate into membrane phospholipids can be used to assess changes in synthetic patterns in the presence or absence of compounds needing to be tested.

[2] = system: sensory neuron growth cones; assay: growth cone collapse / morphology in cultured neurons; type: cell-based
Excerpt: I used the growth cones as a model system for assessing changes in intracellular signalling events in response to drugs: The growth cones have some properties in common with presynaptic nerve terminals in the brain. I argued that, if the signalling changes we see in the growth cones of cultured neurons also occur in mature brain synapses in mood-related circuits, then these changes in neuronal signalling in response to the drugs would very likely affect synaptic transmission and thus also affect mood.
Another method of screening for suitable drugs for the prophylactic treatment of bipolar disorder is to look for compounds that have dual effects on the morphology of growth cones. Suitable compounds are those that can inhibit the collapse of growth cones in a way that is reversed by increasing extracellular inositol to 3 mM as well as reverse the effects of 20 μM carbamazepine or 3 mM valproic acid on the collapse of growth cones. Lamotrigine has such properties.

HMIT = conditions: compared with SMIT; cited from earlier work
[3] = in vivo; cited from earlier work

Question: With NC(=O)N1c2ccccc2C=Cc2ccccc21 [carbamazepine] as the compound, how does the “effect on prolyl oligopeptidase proteolytic activity” value (prolyl oligopeptidase) read?
Answer: Only valproic acid inhibited the enzyme

Question: And the “effect on collapse of sensory neuron growth cones and growth cone area” value [1]?
Answer: inhibit the collapse of sensory neuron growth cones and increase growth cone area

Question: Which “effect on prolyl oligopeptidase proteolytic activity” value (prolyl oligopeptidase) does the source give for CNCCCN1c2ccccc2CCc2ccccc21 [desipramine] here?
Answer: Only valproic acid inhibited the enzyme

Question: And the “concentrations at which the antidepressants act on the PIns cycle” value (cortical neurons)?
Answer: micromolar

Question: With CNCCC(Oc1ccc(C(F)(F)F)cc1)c1ccccc1 (stereo not drawn) [fluoxetine] as the compound, how does the “effect on prolyl oligopeptidase proteolytic activity” value (prolyl oligopeptidase) read?
Answer: Only valproic acid inhibited the enzyme

Question: And the “concentrations at which the antidepressants act on the PIns cycle” value (cortical neurons)?
Answer: micromolar

Question: What about the “reversal of the inhibitory effects of mood stabilizers on the PIns cycle” value (cortical neurons; cycle first perturbed with lithium, valproic acid or carbamazepine) of the same compound?
Answer: can reverse the inhibitory effects of lithium, valproic acid and carbamazepine on the PIns cycle

Question: Which results are given for Nc1nnc(-c2cccc(Cl)c2Cl)c(N)n1 [lamotrigine]?
Answer: reversal of the action of carbamazepine or valproic acid on the growth cones ([2]; 20 μM carbamazepine or 3 mM valproic acid): can reverse the action of either carbamazepine or valproic acid on the growth cones; effect on collapse of growth cones ([2]; compound alone): inhibits the collapse of growth cones; reversal of the growth cone effect by inositol ([2]; increased extracellular inositol (3 mM)): reversed by increasing the extracellular concentration of inositol

Question: Which “strength of HMIT inhibition” value (HMIT) does the source give for O=C(CCc1ccc(O)cc1)c1c(O)cc(O)cc1O [phloretin] here?
Answer: weak inhibitors of HMIT

Question: For CN1c2ccccc2C(NCCCCCCC(=O)O)c2ccc(Cl)cc2S1(=O)=O (stereo not drawn) [tianeptine], which “effective doses in the 3H-CDP-DAG assay” value (cortical neurons; abolition of lithium-induced accumulation, carbachol-stimulated neurons) is on record?
Answer: 10^−6-10^−5 M

Question: And the “effect on lithium-induced accumulation of 3H-CDP-DAG” value (cortical neurons; carbachol-stimulated neurons, in presence of lithium)?
Answer: abolished the lithium-induced accumulation

Question: What about the “effect alone in the 3H-CDP-DAG assay” value (cortical neurons; compound alone) of the same compound?
Answer: no effect alone

Question: Which results are given for CCCC(CCC)C(=O)O [valproic acid]?
Answer: effect on prolyl oligopeptidase proteolytic activity (prolyl oligopeptidase): inhibited the enzyme; Ki (prolyl oligopeptidase; read-out: Ki for direct inhibition of PO): ~1000 µM; effect on collapse of sensory neuron growth cones and growth cone area [1]: inhibit the collapse of sensory neuron growth cones and increase growth cone area; therapeutic blood levels [3]: 0.3 to 0.7 mM
